Data on two molecules can be found in US5463052A, “Method for producing benzylidene derivatives” (Shionogi & Co., Ltd., priority 1993, dated 1995).

Assay type in all cases: cell-based
In experiment [1] the test system is production of IL-1 in THP-1 cells. In words: inhibitory activity against the production of IL-1 under LPS stimulation in THP-1 cells. Conditions: Homo sapiens, read-out: L-1 (THP-1) IC50. The text has this: (§1) These benzylidene derivatives of the formula III can be prepared in a conventional manner, for example, according to the following reaction scheme. [drawing 5] In the reaction scheme above, R is a as defined above and R^3 is hydroxy-protecting group in EP patent application No. 93308369.3 (Publication No. 595546) corresponding to U.S. patent application No. 08/142,146. Thus, hydroxy-protected 3,5-di-tert-butyl-4-hydroxybenzaldehyde 4 is reacted with γ-sultam derivative 2 under a conditions for aldol reaction to obtain an aldol addition compound 5. The compound […], when deprotected and dehydrated in the presence of an acid, gives the objective benzylidene derivative 3' as a mixture of stereoisomers in (E)- and (Z) forms, which is then subjected to resolution, when a given isomer is desired.

Experiment [2] has as its system production of LTB4 in rat celiac cells. The experiment in a line: inhibitory activity against the production of LTB4 in rat celiac cells (Rat PEC).
Text: as §1

In experiment [3] the test system is production of PGE2 in rat synovial membrane cells. The experiment in a line: inhibitory activity against the production of PGE2 in rat synovial membrane cells (Rat SVC).
Text: as §1

As for `CN1CC/C(=C\c2cc(C(C)(C)C)c(O)c(C(C)(C)C)c2)S1(=O)=O` [(E), (E)-5-(3,5-di-tert-Butyl-4-hydroxybenzylidene)-2-methyl-1,2-isothiazolidine-1,1-dioxide], the IC50 in experiment [1] was 21000 nM; in experiment [2], 2800 nM; in experiment [3], less than 1 nM.

On to `CN1CC/C(=C/c2cc(C(C)(C)C)c(O)c(C(C)(C)C)c2)S1(=O)=O` [(Z), 5-(3,5-di-tert-butyl-4-hydroxybenzylidene)-2-methyl-1,2-isothiazolidine-1,1-dioxide], for which the IC50 in experiment [1] was 29000 nM; in experiment [2] it was 1800 nM; in experiment [3], less than 1 nM.

For orientation: IC50 means the concentration at which inhibition is half-maximal.
